Measured values: patent US20210401807A1, “NEW COMPOSITION COMPRISING AMORPHOUS NANOPOROUS SILICA PARTICLES” (VICORE PHARMA AB, priority 2018, published 2021)
Structures can show the parent of a compound that is named as a salt.

Assay: Dissolution kinetics in simulated lung fluid (SLF), USP 2 dissolution apparatus
Type: physicochemical
Settings: SLF pH 7.4, 37° C.
Experimental: The dissolution kinetics of the C21-loaded silica described in Example 5 were characterized in SLF (pH 7.4; Gamble's solution: made up with the salts NaCl, NaHCO3, KCl, MgCl2, CaCl2, Na2SO4, sodium citrate dihydrate, sodium acetate, NaH2PO4 (all from Sigma-Aldrich)) at 37° C. (Reference: Simulated Biological Fluids with Possible Application in Dissolution Testing, Marques et al,. Dissolution technologies August 2011, p15-28) using a USP 2 dissolution apparatus with stirring speed 75 rpm. Free, unloaded C21-sodium salt was used as control. Concentration of drug at set times after release was measured by a UV/vis spectrometer (Cecil 3021) at 267 nm.
The dose of C21 was calculated as 25 mg of C21 in 500 mL of SLF. […] The loaded C21 is fully released and dissolved from the silica particles in around 10 minutes.

solubility in SLF conditions: readily soluble
released in the first 2 minutes (75 rpm, 25 mg of C21 in 500 mL): 96%
SMILES: CCCCOC(=O)NS(=O)(=O)c1sc(CC(C)C)cc1-c1ccc(Cn2ccnc2)cc1 [C21 sodium salt, N-butyloxycarbonyl-3-(4-imidazol-1-ylmethylphenyl)-5-iso-butylthio-phene-2-sulfonamide]
